The supplement of paper PMC9763283
Structures can show the parent of a compound that is named as a salt.

Experiments:
Experiment in all cases: area under growth-rate inhibition curve (AUC GRI) (dimensionless (GR-based AUC)); higher = less growth inhibition
Conditions in all cases: exposure time: 72 h; concentrations: 0.1, 1, 10 uM
[1] = system: BT474-LTR
Outline: (§1)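 Nuclear counts from Hoechst 33342- or DAPI-stained images were used to estimate the area under the growth-rate inhibition curve, with growth corrected by reference to untreated and DMSO-treated plates and starting plates. The six breast cancer cell line models, comprising two triple-negative lines and parental and drug-combination-resistant HER2+ lines, were treated with compound at 0.1, 1 or 10 µM for 72 h. Data came from 2 biological replicates, using Day 0 and Day 3 plates.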

[2] = system: BT474-P
Outline: as §1

[3] = system: MDA-MB-231
Outline: as §1

[4] = system: MDA-MB-468
Outline: as §1

[5] = system: SKBR3-LTR
Outline: as §1

[6] = system: SKBR3-P
Outline: as §1

Structure (SMILES)	area under growth-rate inhibition curve [1]	area under growth-rate inhibition curve [2]	area under growth-rate inhibition curve [3]	area under growth-rate inhibition curve [4]	area under growth-rate inhibition curve [5]	area under growth-rate inhibition curve [6]
Br.Cc1ccc(Sc2ccccc2N2CCNCC2)c(C)c1	0.912	0.865	0.879	0.885	0.929	0.872
CC(C)N(CCC(c1ccccc1)c1cc(CO)ccc1O)C(C)C (configuration not stated)	1.06	1.04	1.03	1.04	1.03	0.957
CC(C)c1cc(-c2ccc(F)c3ccccc23)nc(N)n1	1.08	1.03	0.999	1	1.07	1.03
CCCCOc1ccc(C(=O)Nc2ccc(F)cc2F)cc1	1.06	1.02	1.02	1.01	1.05	1.01
CCCN1CCO[C@H]2c3cc(O)ccc3OC[C@@H]21	1.06	1.08	1.02	1.03	1.05	1.03
CCc1c(C(=O)NCCc2ccc(N3CCCCC3)cc2)[nH]c2ccc(Cl)cc12	1.06	1.04	1.02	0.994	1.09	0.994
Cc1cc(NC(=O)Nc2ccc(N(C)C)cc2)c2cc(F)cc(F)c2n1	0.977	0.963	0.936	0.951	0.958	1
CN1CCC(c2c[nH]c3ccc(O)cc23)CC1	0.996	0.996	1	0.984	0.997	1.02
CN1CCN(C(=O)c2cc3cc(Cl)ccc3[nH]2)CC1	1.06	1.02	1.04	1.04	1.05	0.993
CN1CCN(c2nc3ccccc3nc2Cl)CC1	1.01	0.997	0.97	0.986	1.01	0.987
CNCc1ccc(C)c(NC(=O)c2ccc(Nc3nc(-c4ccccc4)c4ccccc4n3)cc2)c1	1.08	0.853	0.877	0.856	0.914	0.876
COc1cc(NC(=O)c2ccccn2)ccc1Cl	1.07	1.01	1.05	1.01	1.05	0.979
COc1cc(OC)c(NC(=O)Nc2cc(C)on2)cc1Cl	1.05	0.977	1.03	1.02	1.06	1
COc1ccc(NS(=O)(=O)c2sc3ccc(Cl)cc3c2C)cc1N1CCNCC1	1.03	0.976	1.05	0.964	1.05	0.997
COc1ccccc1N1CCN(CCN(C(=O)C2CCCCC2)c2ccccn2)CC1.O=C(O)/C=C\C(=O)O	1.06	1.02	1.03	0.993	1.04	0.976
Cc1nc(C#Cc2ccnc(Cl)c2)c(C)n1-c1ccc(OC(F)(F)F)cc1	1.09	0.969	1.03	1	0.968	1
CC1CCN(CCC2CCCN2S(=O)(=O)c2cccc(O)c2)CC1.Cl (configuration not stated)	1.06	1.04	1.02	1.02	1.05	1
O=C(NCc1ccncc1)C12CC3CC(C1)CC(c1ccc(Cl)cc1)(C3)C2	1.08	0.985	1.04	1.01	1.04	1.02
O=C(Nc1cccc(Cl)c1)c1ccccn1	1.06	1.02	1.03	1.02	1.04	1.01
O=C(NCC1CCOCC1)c1cnc(Nc2ccc(Cl)cc2Cl)nc1C(F)(F)F	1.04	0.983	1	1.01	1.05	1.02

Structure (SMILES)	area under growth-rate inhibition curve [1]	area under growth-rate inhibition curve [2]	area under growth-rate inhibition curve [3]	area under growth-rate inhibition curve [4]	area under growth-rate inhibition curve [5]	area under growth-rate inhibition curve [6]
O=C(c1ccc(F)cc1)N1CCC[C@H](c2nc(-c3ccc(F)cc3)no2)C1	1.07	1.02	1.01	1.04	1.11	1.01
Nc1nc(NCCc2ccc(O)cc2)nc2nc(-c3ccco3)nn12	1.03	1.01	1.03	0.973	0.956	0.822
Nc1nc2c(cnn2CCc2ccccc2)c2nc(-c3ccco3)nn12	0.94	0.99	1	0.781	0.902	0.666
O=S(=O)(c1ccccc1)c1cnc2c(N3CCNCC3)cccc2c1	1.08	0.99	1.03	1.01	1.05	0.997
N#Cc1cc(CN2CCC(Nc3ncnc4sc(Cl)cc34)CC2)ccc1F.O=C(O)/C=C\C(=O)O	0.875	0.879	0.988	0.885	0.964	0.839
OC[C@H]1O[C@@H](c2ccc(Cl)c(Cc3ccc(O[C@H]4CCOC4)cc3)c2)[C@H](O)[C@@H](O)[C@@H]1O	1.07	1.03	1.03	1.05	1.09	1.03
Cc1ccc(OCC(O)C(C)NC(C)C)c2c1CCC2.[Cl-].[H+] (configuration not stated)	1.11	1.04	1.06	1.05	1.07	1.01
CCNC1(C(N)=O)CCN(c2ncnc3c2nc(-c2ccccc2Cl)n3-c2ccc(Cl)cc2)CC1.[Cl-].[H+]	1.06	0.991	0.999	1	1.04	1.01
OC(CN1CCN(c2cccc(Cl)c2)CC1)C(c1ccccc1)c1ccccc1.[Cl-].[Cl-].[H+].[H+] (configuration not stated)	1.07	1.04	1.04	0.981	1.05	0.982
O=C1CCCC2C3CCCN4CCCC(CN12)C34 (single isomer, unassigned; (+)) [(+)-Matrine]	1.08	1.06	1.03	1.01	1.09	1.02
CCC(=C(c1ccc(O)cc1)c1ccc(OCCN(C)C)cc1)c1ccccc1 [4-hydroxytamoxifen]	0.936	0.865	0.935	0.896	0.934	0.979
Nc1ncnc2c1c(I)cn2[C@@H]1O[C@H](CO)[C@H](O)C1O (some centres not stated) [5-Iodotubercidin]	0.673	0.676	0.705	0.73	0.627	0.632
CCN(CC)CCCCN1c2ccccc2Oc2ccc(Cl)cc21.Cl [10-DEBC hydrochlorid]	0.995	1.04	1.04	1.06	1.05	1.04
CC(=O)[C@@]1(O)CC[C@H]2[C@@H]3CCC4=CC(=O)CC[C@]4(C)[C@H]3CC[C@@]21C [17-Hydroxyprogesterone]	1.07	1.02	1.02	1	1.03	1
C[C@@]12N[C@@H](Cc3ccccc31)c1ccccc12.O=C(O)/C=C/C(=O)O [(-)-MK 801 Maleate]	1.08	1.03	1.03	1.04	1.06	1.03
CN1CCc2cccc3c2[C@H]1Cc1ccc(O)c(O)c1-3.[Cl-].[H+] [(R)-(-)-Apomorphine hydrochloride]	0.963	0.933	1.03	0.977	1.04	0.965
CCN(CC)C(=O)c1ccc(C2=CC3(CCNCC3)Oc3cccc(O)c32)cc1.Cl [ADL5859 HCl]	1.07	1.05	1.03	1.04	1.1	1.03
CN1CCCCC1Cn1cc(C(=O)c2cc([N+](=O)[O-])ccc2I)c2ccccc21 (configuration not stated) [AM1241]	1	0.977	0.987	0.972	1.02	0.998
CC(=O)NCCCS(=O)(=O)[O-].CC(=O)NCCCS(=O)(=O)[O-].[Ca+2] [Acamprosate calcium]	1.01	1.01	0.995	1	1.03	1.01
CCCC(=O)Nc1ccc(OCC(O)CNC(C)C)c(C(C)=O)c1.[Cl-].[H+] (configuration not stated) [Acebutolol HCl]	1.11	1.05	1.03	1.03	1.07	1.04

Structure (SMILES)	area under growth-rate inhibition curve [1]	area under growth-rate inhibition curve [2]	area under growth-rate inhibition curve [3]	area under growth-rate inhibition curve [4]	area under growth-rate inhibition curve [5]	area under growth-rate inhibition curve [6]
CC(=O)OCC[N+](C)(C)C.[Cl-] [Acetylcholine Chloride]	1.09	1.03	1.04	1.04	1.05	1.02
O=C(OC1C[N+]2(CCCOc3ccccc3)CCC1CC2)C(O)(c1cccs1)c1cccs1.[Br-] (configuration not stated) [Aclidinium Bromide]	0.997	1.01	1.03	1.03	1.02	0.988
CNCC(=O)c1ccc(O)c(O)c1.Cl [Adrenalone HCl]	1.1	1.04	0.964	1.02	1.07	1.03
CN1CCC(=C2c3ccccc3CCn3c(C=O)cnc32)CC1 [Alcaftadine]	1.04	1	1.04	1.03	1.06	1.02
COc1cc2nc(N(C)CCCNC(=O)C3CCCO3)nc(N)c2cc1OC.[Cl-].[H+] (configuration not stated) [Alfuzosin HCl]	1.09	1.03				1.01
O=c1ncnc2[nH][nH]cc1-2 [Allopurinol]	1.1	1.06	1.03	1.06	1.07	1.03
CNC(=O)[C@@H](c1ccccc1)N1CCc2cc(OC)c(OC)cc2[C@@H]1CCc1ccc(C(F)(F)F)cc1.Cl [Almorexant HCl]	1.07	0.976	1.01	1	0.988	0.977
CN(C)CCc1c[nH]c2ccc(CS(=O)(=O)N3CCCC3)cc12.O=C(O)CC(O)C(=O)O [Almotriptan Malate]	1.09	1.02	1.02	1.04	1.06	1.02
C=CCC1(O)CCC2C3CCC4=CC(=O)CCC4=C3C=CC21C (configuration not stated) [Altrenogest]	1.01	0.953	1.03	1	1.08	1.04
C[C@H]1CN(C[C@H](Cc2ccccc2)C(=O)NCC(=O)O)CC[C@@]1(C)c1cccc(O)c1 [Alvimopan]	1.03	0.995	1.03	1.03	1.04	1.02
Cl.NC12CC3CC(CC(C3)C1)C2 [Amantadine HCl]	1.08	1.05	1.03	1.02	1.05	1.05
COC(c1ccccc1)(c1ccccc1)C(Oc1nc(C)cc(C)n1)C(=O)O (configuration not stated) [Ambrisentan]	1.05	1.01	1.05	1.04	1.06	1.03
CC(NC(C)(C)C)C(=O)c1cccc(Cl)c1 (configuration not stated) [Amfebutamone HCl]	1.03	1.02	0.987	1.01	1.03	1.01
CCN1CCCC1CNC(=O)c1cc(S(=O)(=O)CC)c(N)cc1OC (configuration not stated) [Amisulpride]	0.985	1.01	0.988	1.01	0.975	1.02
CN(C)CCC=C1c2ccccc2CCc2ccccc21.Cl [Amitriptyline HCl]	1.08	1.03	1.03	0.997	1.09	0.983
COc1ccc(C(=O)N2CCCC2=O)cc1 [Aniracetam]	1.08	1.04	1.01	1.02	1	1.01
CNCCCN1c2ccccc2CCc2ccccc21.Cl [Desipramine hydrochloride]	0.997	0.985	1.03		1.06	
CCCCC(=O)N(Cc1ccc(-c2ccccc2-c2nnn[nH]2)cc1)[C@H](C(=O)O)C(C)C [Valsartan]	1.02	0.974	1.04	1.04		1.02
